ChEMBL document CHEMBL2439994, “Synthesis and biological evaluation of hydrazidomycin analogues” (Bioorg Med Chem Lett, 2013)

Columns and labels:
[1] = Antiproliferative activity against HUVEC after 72 hrs by resazurin dye reduction assay; type: cell-based; settings: human, HUVEC cells
K562 = assay: Antiproliferative activity against human K562 cells after 72 hrs by resazurin dye reduction assay; type: functional; settings: K562, 72 h
HeLa = assay: Cytotoxicity against human HeLa cells after 72 hrs by methylene blue staining; type: functional
HT-29 = assay: Antiproliferative activity against human HT-29 cells after 72 hrs by resazurin dye reduction assay; type: functional; settings: HT-29, 72 h

SMILES	GI50 at 72 h [1] [µM]	GI50 (K562) [µM]	CC50 (HeLa) [µM]	GI50 (HT-29) [µM]
CCCCCCCCCCCCCCNNC(=O)COC	33.6	66.2	59.6	–
CCCCCCCCCCNNC(=O)COC	156	167	138	–
CCCCCCCCCCCCCCN(NC(=O)COC)C(=O)CCCCCCCCC	103	> 110	> 110	–
CCCCCCCCCCN(NC(=O)COC)C(=O)CCCCCCCCC	114	97.3	> 125	–
CCCCCCCCCCCC/C=C/N(NC(=O)COC)C(=O)CCCCCCCCC	46.2	> 110	> 110	–
CCCCCCCCCCCC/C=C\N(NC(=O)CCl)C(=O)CCCCCCCCC	57.5	18.4	104	–
CCCCCCCCCCCC/C=C\N(NC(C)=O)C(=O)CCCCCCCCC	39.7	41.9	83.3	–
CCCCCCCCCCCC/C=C/N(NC(=O)COC)C(=O)OC(C)(C)C	36.1	41.4	57.7	–
CCCCCCCC/C=C/N(NC(=O)COC)C(=O)OC(C)(C)C	49.9	45	83.2	–
CCCCCCCCCCCC/C=C\N(NC(=O)COC)C(=O)OC(C)(C)C	15.8	28.3	85.3	–
CCCCCCCC/C=C\N(NC(=O)COC)C(=O)OC(C)(C)C	85.5	61.3	104	–
CCCCCCCCCCN(NC(=O)COC)C(=O)OC(C)(C)C	22.9	40.6	104	–
CCCCCCCCCCCCCCN(NC(=O)COC)C(=O)OC(C)(C)C	12.2	40.9	41.9	–
CCCCCCCCCCCCCCN(N)C(=O)OC(C)(C)C	27.1	58.7	96.5	–
CCCCCCCCCCCC/C=C\N(NC(=O)COC)C(=O)CCCCCCCCC [HYDRAZIDOMYCIN A]	70.7	> 110	108	0.46
